In patent US4552765A, “Aletheine derivatives” (Santen Pharmaceutical Co., Ltd., priority 1982, dated 1985):

Tested on: CCl4-induced liver damage
Assay: effect on CCl4-induced liver damage in rats (serum transaminase s-GOT and s-GPT)
Format: in vivo, Male wistar rats
Details: for serum transaminase s-GPT / serum transaminase s-GOT / s-GPT (inhibitory %) / s-GOT (inhibitory %): 300 mg/Kg orally, 60 min before CCl4 0.25 ml/Kg i.p., 24 h after CCl4; for serum transaminase s-GPT / serum transaminase s-GOT: mean ± standard deviation; for effect on liver damage: result in words
Source text: Generally, the effect of a certain compound on liver damage is examined by administering it to experimental animals before a liver damage inducer such as carbon tetrachloride, thioacetamide, bromobenzene, paracetamol, D-galactosamine, etc. Carbon tetrachloride (CCl4)-induced liver damage is commonly used as the model. The mechanism to induce liver damage is presumed as follows (Biochemical Pharmacology 21, 49 (1972), ibid., 25, 2163 (1976)). In this invention, the effect of the compounds were examined against CCl4 -induced liver damage using serum transaminase activities (s-GOT and s-GPT) as a parameter. Male wistar rats (6 animals per group), weighing about 170-200 g, fasted for 17 hours, were used in the experiments. Test compounds were given orally at a dose of 300 mg/Kg, and 60 minutes later CCl4 was administered intraperitoneally at a dose of 0.25 ml/Kg (5 ml/Kg as a 5%(v/v)solution in olive oil). As the control, olive oil only was given intraperitoneally at a dose of 5 ml/Kg. All animals were killed 24 hours after CCl4 administration and their s-GOT and s-GPT activities were determined.

[1] = Table I, vs control 11460 ± 1490
[2] = Table II, vs control 6400 ± 2590
[3] = Table II, vs control 13950 ± 4030

SMILES | serum transaminase s-GPT (Table I, control 5100 ± 405) [Karmen unit/ml] | serum transaminase s-GOT (Table I, control 11460 ± 1490) [Karmen unit/ml] | s-GPT (inhibitory %) (Table I, vs control 5100 ± 405) [%] | s-GOT (inhibitory %) [1] [%] | serum transaminase s-GPT (Table II, control 6400 ± 2590) [Karmen unit/ml] | serum transaminase s-GOT (Table II, control 13950 ± 4030) [Karmen unit/ml] | s-GPT (inhibitory %) [2] [%] | s-GOT (inhibitory %) [3] [%] | effect on liver damage
CC(=O)SCCNC(=O)CCNC(=O)OCc1ccccc1 [compound No. 1, N-(2-Acetylthioethyl)-3-(benzyloxycarbonylamino)propionamide] | 2590 ± 731 | 5250 ± 1330 | 49 | 54 | – | – | – | – | –
CCC(=O)SCCNC(=O)CCNC(=O)OCc1ccccc1 [compound No. 2, 3-(Benzyloxycarbonylamino)-N-(2-propionylthioethyl)-propionamide] | 1720 ± 613 | 3550 ± 1150 | 66 | 69 | – | – | – | – | –
O=C(CCNC(=O)c1ccccc1)NCCSC(=O)c1ccccc1 [compound No. 3, 3-Benzoylamino-N-(2-benzoylthioethyl)propionamide] | 2440 ± 960 | 6150 ± 2990 | 52 | 46 | – | – | – | – | –
Cl.NCCC(=O)NCCS [compound No. 4, 3-amino-N-(2-mercaptoethyl)propionamide hydrochloride] | – | – | – | – | 1990 ± 1010 | 4690 ± 2490 | 69 | 67 | –
O=C(CCNC(=O)OCc1ccccc1)NCCS [compound No. 5, 3-(benzyloxycarbonylamino)-N-(2-mercaptoethyl)propionamide] | – | – | – | – | 1900 ± 1640 | 4450 ± 4430 | 71 | 69 | superior effect on liver-damage
CC(=O)NCCC(=O)NCCSC(C)=O [compound No. 6, 3acetylamino-N--(2acetylthioethyl)propionamide] | – | – | – | – | 1730 ± 800 | 3370 ± 1360 | 73 | 76 | superior effect on liver-damage
NCCC(=O)NCCS [β-aletheine, N-β-Alanyl-2-mercaptoethylamine] | – | – | – | – | – | – | – | – | excellent suppressive effect on liver damage
